Results taken from patent US20080039485A1, “LOW-DOSE-LONG-TERM PHARMACEUTICAL COMPOSITION COMPRISING CAMPTOTHECIN DERIVATIVES FOR THE TREATMENT OF CANCERS” (TARGETGEN BIOTECHNOLOGY CO., LTD., priority 2006, published 2008).

Legend:
[1] = tested on: Colo-205 cells; experiment: Cell cycle distribution by propidium iodide staining and flow cytometry; format: cell-based, human; conditions: various concentrations, 48 hrs
Protocol: We further investigated if the suppression of cell growth induced by 10-HCPT on Colo-205 was due to either cell cycle arrest or cell death. The Colo-205 cells were treated with various concentrations of 10-HCPT for 48 hrs and analyzed by propidium iodide staining and flow cytometry as described below.
After treatment with 10-HCPT, cells were trypsinized and resuspended in 70% ethanol. The cells were incubated on ice for at least 1 hr and resuspended in 1 mL of cell cycle assay buffer (0.38 mM sodium citrate, 0.5 mg/mL RNase A, and 0.01 mg/mL propidium iodide) at a concentration of 5×10^5 cells/mL. Samples were stored in the dark at 4° C. until cell cycle analysis, which was carried out by use of a flow cytometer and ModFit LT 2.0 software (Verity Software, Topsham, Me.).
A FACScan flow cytometer (Becton Dickinson, Bedford, Mass.) equipped with a 488-nm argon laser was used for analysis of cellular function by flow cytometry. Forward and side scatters were used to establish size gates and exclude cellular debris from the analysis. The excitation wavelength was set at 488 nm. The observation wavelength of 530 nm was chosen for green fluorescence and 585 nm for red fluorescence and the intensities of emitted fluorescence were collected on FL1 and FL2 channels, respectively. In each measurement, a minimum of 20,000 cells was analyzed. Data were acquired and analyzed using the Cell Quest software (Becton Dickinson). Relative change in the mean fluorescence intensity was calculated as the ratio between mean fluorescence intensity in the channel of the treated cells and that of the control.

[2] = tested on: Colo-205 xenografts; experiment: In vivo antiproliferation, Colo-205 xenografts in BALB/c-nu mice; conditions: for tumor volume at day 24: control 300.5±22.3
Protocol: We further examined whether 10-HCPT is effective in growth suppression in vivo after tumor formation. Colo-205 cells were transplanted into BALB/c-nu mice, and when the tumors were palpable (3-5 mm), the mice were treated either with vehicle control or 10-HCPT.
The in vivo experiment was carried out with ethical committee approval and met the standards required by the Guiding Principles in the Use of Animals in Toxicology, which were adopted by the Society of Toxicology in 1989. The BALB/c-nu mice were obtained from National Laboratory Animal Center of National Applied Research Laboratories (Taipei, Taiwan) and housed in a laminar flow room under sterilized conditions with the temperature being maintained at 25±2° C. and the light controlled at 12 h light and 12 h dark cycle. The Colo 205 cells were harvested and resuspended in serum free RPMI-1640 medium. Cells were adjusted to 1×10^7 cells/mL, and transplanted subcutaneously on the flank regions of the mice. Each experimental group included six to seven mice bearing tumors.
(§1) 10-HCPT was dissolved in propylene glycol and treatment began when the tumor size reached 3-5 mm. 10-HCPT was administered via p.o. once per two or four days at doses of 1-7.5 mg/kg (volume of injection: 0.1 mL/20 g of body weight), respectively. The control group received propylene glycol vehicle once per two days. Tumor size and body weight were monitored twice a week throughout the experiment. The tumor size was measured using a vernier caliper. Tumor volume (V) was calculated according to the formula: V (mm^3)=0.4AB^2, where A and B are the longest diameter and the shortest diameter, respectively. At the end of experiment, all mice were sacrificed by CO2 gas. Tumors, livers, kidneys, and lungs were collected, fixed, embedded and stained with hematoxylin and eosin for pathological analysis.

[3] = tested on: Colo-205 cells; experiment: DNA fragmentation assay; format: cell-based, human; conditions: various concentrations, 48 hrs, 1.5% agarose gel
Description: Because apoptosis always takes place as a consequence of a cell cycle block, it is possible that 10-HCPT is able to cause cell death through apoptosis pathway. To verify this possibility, we first performed DNA fragmentation assay since DNA fragmentation is one characteristic of apoptosis.
The DNA of Colo-205 cells treated with various concentrations of 10-HCPT for 48 hrs was extracted and analyzed by 1.5% native agarose gel electrophoresis.

[4] = tested on: Colo-205 cells; experiment: Viable cell number by trypan blue exclusion assay; format: cell-based, human; conditions: 5, 10, 15 or 20 nM, 24 to 120 hr, vs untreated cells
Protocol: To investigate the effect of 10-HCPT on the growth of Colo-205 cell line, the cells were treated with a series of dosages of 10-HCPT and harvested at different time points. The cell numbers were determined by trypan blue exclusion assay as described below.
Colo-205 cells (5×10^5) were seeded in 25T flasks overnight and then treated without (control) and with 5, 10, 15, or 20 nM of 10-HCPT, respectively. After treatment for 24 to 120 hr, cells were harvested by trypsin-EDTA and then centrifuged at 1500 rpm for 5 min at 4° C. The cell pellet was resuspended in culture medium containing 0.04% trypan blue and the viable cells were enumerated by a hemocytometer.

[5] = tested on: human colon cancer HT-29 cells; experiment: MTT assay of cell growth, HT-29; format: cell-based; conditions: HT-29, days 1-3, MTT
Protocol: (§2) Two human colon cancer cell lines, Colo-205 (ATCC accession No. CCL-222) and HT-29 (ATCC accession No. HTB-38), were used in this study. Cells were treated with 0.2, 0.76, 1.52, 7.62, 15.24, 22.87, 30.49, 38.11, 45.73 or 53.35 μM 10-HCPT or CPT-11 for 1-3 days, and the relative number of the viable cells was determined by MTT assay as described below.
(§3) Cells were seeded in a 24-well cell culture cluster (Costar, Cambridge, Mass.) at a density of 1×10^6 cells per mL and cultured overnight prior to drug treatment. After 10-HCPT or CPT-11 treatment for 3 days, the medium was discarded and replaced with an equal volume (0.5 mL) of fresh medium containing 0.456 mg/mL 3-[4,5-dimethylthiazol-2-yl]-2,5-diphenyl-tetrazolium bromide (MTT; Sigma Chemical Company) and incubated for 2 hours at 37° C. in the dark. The medium was discarded, and cells were then combined with […] dimethyl sulfoxide (Sigma Chemical Company) to dissolve the formazan produced. Cell viability was determined according to the calorimetric comparison by reading optical density (OD) values from a microplate reader (Spectra Max 250; Spectra Diode Laboratories, CA) at an absorption wavelength of 570 nm.

[6] = tested on: human Hep G2 cells; conditions: cited from earlier work
[7] = tested on: caspases (IETD-pNA and LEHD-pNA substrates); experiment: IETD-pNA and LEHD-pNA cleavage in cell lysates; format: cell-based, human; conditions: Colo-205 cells
[8] = cited from earlier work
[9] = Toxicity in xenograft-bearing nude mice (body weight, pathology); format: in vivo
Protocol: as §1

[10] = tested on: caspase-3; experiment: DEVD-pNA cleavage activity (Caspase-3 Colorimetric Assay Kit); format: cell-based, human; conditions: Colo-205 lysates, 48 hrs treatment, vs drug-free control
Protocol: In addition, to further determine whether caspases participate in the propagation of apoptosis induced by 10-HCPT in Colo-205 cells, cell lysates from drug-treated cells were analyzed for the cleavage of the p-nitroaniline-tagged peptides N-Acetyl-Asp-Glu-Val-Aps-pNA (DEVD-pNA), which represent preferential substrates for caspase-3. Caspase activation leads to the release of pNA that can be monitored by absorbance measurements at 405 nm using a plate reader. Specifically, DEVD-pNA cleavage activity was measured using Caspase-3 Colorimetric Assay Kit (BioVision) according to the recommended protocols. 3×10^6 of 10-HCPT treated cells were harvested, resuspended in 50 μl of chilled cell lysis buffer and incubated on ice for 10 min before centrifugation (12,000 rpm for 3 min at 4° C.). The supernatant was collected and the total protein concentration of the supernatant was determined by Dc protein assay kit (Bio-Rad). Each assay reaction containing 100 μg of cell lysates, 50 μl of 2× reaction buffer supplemented with 10 mM DTT, and 5 μl of the 4 mM of DEVD-pNA (200 μM final concentration) was carried out at 37° C. for 1 hr. The formation of p-nitroanilide was detected at 405 nm in a microtiter plate reader.

[11] = tested on: histone H1 and H3; conditions: murine hepatoma cells; cited from earlier work
[12] = tested on: cell cycle regulatory proteins in Colo-205 cells; experiment: Western blotting of cell cycle regulatory proteins; format: cell-based, human; conditions: Colo-205, 3 μM, 48 hr
Description: The progression of the cell cycle is promoted by various CDKs binding with their respective cyclin partners and inhibited by CDK inhibitors such as p21 and p27. In general, CDK2 in association with cyclin E regulates the G1/S transition, and CDK1 in concert with type-A and -B cyclins controls the G2/M transition. Both cell cycle inhibitory proteins p21 and p27 block cell cycle progression at the G1/S as well as the G2/M transitions of cell cycle. […] To confirm this speculation, we analyzed the expressions of several cell cycle regulatory proteins by means of Western blotting assay as described below.
Colo-205 cells were cultured in Dulbecco's modified Eagle Medium (DMEM) supplemented with 10% fetal bovine serum (FBS) at 37° C. in a 5% CO2 atmosphere. Cells were seeded in 6-well plate and incubated with 3 μM of 10-HCPT. After 48 hr, the treated cells were washed twice with phosphate-buffered saline (PBS), flash frozen in liquid nitrogen, and stored at −80° C. The harvested cells were lysed in ice-cold report lysis buffer (Promega). After cleaning the resulted lysates by centrifugation, protein in the clear lysate was quantified by Dc protein assay kit (Bio-Rad). 15 μg of lysate protein were resolved by 10% SDS-PAGE, transferred onto a polyvinylidene difluoride membrane (PVDF membrane, Amersham Biosciences), and immunoblotted with antibodies against followed cellular proteins: DNA topoisomerase I, p53, p27, phosphorylated p27 (Santa Cruz Biotechnology), cyclin E, CDK2 (BD Pharningen), PCNA, p21 (Upstate), and α-tubulin (Sigma). Protein content was visualized with BM Chemiluminescence Blotting Kit (Roche Molecular Biochemicals). The blots were exposed to X-ray film (Fuji) for various times.

[13] = tested on: human colon cancer Colo-205 cells; experiment: MTT assay of cell growth, Colo-205; format: cell-based; conditions: for concentration at which significant growth inhibition was observed: Colo-205, day 2 and day 3, MTT, vs vehicle controls; for concentration at which complete growth inhibition was observed: Colo-205, days 1-3, MTT
Protocol: as §2, §3

[14] = well known in the art; cited from earlier work
[15] = previous pharmacokinetic studies

In the case of `CC[C@@]1(O)C(=O)OCc2c1cc1n(c2=O)Cc2cc3cc(O)ccc3nc2-1` [10-HCPT, 10-hydroxy-camptothecin], the “cell populations in G0/G1 phase” value [1] is reported as “decreasing”, the “cell populations in G2/M phase” value [1] is reported as “induced dramatically the increasing” and the “population in sub G0/G1 phase” value [1] is reported as “increasing population”. The “S phase of cell cycle” value ([1]; vs untreated) was “no significant differences”, the “tumor volume at day 24” value ([2]; 2.5 mg/kg/2 days p.o., P<0.01) was 85.9±12.3 mm^3 and the “tumor volume at day 24” value ([2]; 2.5 mg/kg/4 days p.o.) was 273.1±33.7 mm^3. The “tumor volume at day 24” value ([2]; 5 mg/kg/2 days p.o., P<0.01) was 60.8±15.4 mm^3, the “tumor volume at day 24” value ([2]; 5 mg/kg/4 days p.o., p<0.05) was 228.9±45.3 mm^3 and the “tumor volume at day 24” value ([2]; 7.5 mg/kg/2 days p.o., P<0.01) was 7.2±2.8 mm^3. The “tumor volume at day 24” value ([2]; 7.5 mg/kg/4 days p.o., p<0.05) was 182.9±43.9 mm^3, the tumor growth suppression ([2]; oral, 2.5-7.5 mg/kg/2 days, nude mouse xenografts) was “obviously observed” and the DNA ladders [3] was “DNA ladders were detected”. The “effect on cell number increase” value [4] was “suppression of cell number increasing in dose-dependent manner”, the “concentration at which complete growth inhibition was observed” value [5] was 0.5 µM and the effect on differentiation [6] was “differentiation inducing effect”. The “caspase activation with IETD-pNA substrate” value [7] was “only stimulated little caspase activations”, the “caspase activation with LEHD-pNA substrate” value [7] was “only stimulated little caspase activations” and the “toxicity with i.v. administration” value ([8]; i.v.) was “Dose-dependent toxicity was observed”. For the same compound, the distribution half-life [8, 15] was “short”, the elimination half-life [8, 15] was “prolonged” and the average body weight ([9]; 7.5 mg/kg/2 days-treated group, end of study) was “slightly recovered”. For the same compound, the acute toxicity ([9]; 1-7.5 mg/kg, p.o., once per two or four days, nude mice) was “no obvious acute toxicity”, the body weight ([9]; all treated groups except the 7.5 mg/kg/2 days-treated group) was “No significant reduction in body weight” and the “tissue damage in liver, lung and kidney” value ([9]; tissue slices stained with hematoxylin and eosin) was “no tissue damage was observed”. For the same compound, the “absorbance with the DEVD-pNA substrate” value [10] was “clearly elevated”, the “effect on phosphorylation of histone H1 and H3” value [11] was “inhibitory effect” and the CDK2 expression [12] was “increasing expression”. For the same compound, the PCNA protein level [12] was “no effect”, the “amount of p27” value [12] was “decreasing amount” and the cdc25c expression [12] was “enhanced”. For the same compound, the “cyclin B1 expression” value [12] was “enhanced”, the “cyclin E expression” value [12] was “increasing expression” and the p21 protein level [12] was “dramatically increased”. The “concentration at which significant growth inhibition was observed” value [13] was 0.2 µM and the “concentration at which complete growth inhibition was observed” value [13] was 1 µM.
For `CC[C@@]1(O)C(=O)OCc2c1cc1n(c2=O)Cc2cc3ccccc3nc2-1` [CPT, Camptothecin], the water-solubility [14] is given as “water-insoluble”.
In the case of `CC[C@@]1(O)C(=O)OCc2c1cc1n(c2=O)Cc2cc3c(CN(C)C)c(O)ccc3nc2-1` [topotecan], the water-solubility [14] is listed as “better water-solubility than CPT”.
In the case of irinotecan [CPT-11], the water-solubility [14] is listed as “better water-solubility than CPT”, the “concentration at which complete growth inhibition was observed” value [5] is listed as 45.73 µM and the “concentration at which significant growth inhibition was observed” value [13] is listed as 22.87 µM. The “concentration at which complete growth inhibition was observed” value [13] was 38.11 µM.
